Patent US11142515B2, “Pyrazolyl-ureas as kinase inhibitors” (RESPIVERT LIMITED, priority 2014, dated 2021)

Experiments:
[1] = target: T1, p38MAPKγ (MAPK12) (Homo sapiens, UniProt P53778); experiment: p38 MAPKγ enzyme inhibition (Z-LYTE FRET); type: biochemical; conditions: Table 2B, unit inferred; read-out: p38 MAPKγ (Enzyme Profile)
T1 construct: purchased Life Technologies
T1 sequence (P53778 1-367): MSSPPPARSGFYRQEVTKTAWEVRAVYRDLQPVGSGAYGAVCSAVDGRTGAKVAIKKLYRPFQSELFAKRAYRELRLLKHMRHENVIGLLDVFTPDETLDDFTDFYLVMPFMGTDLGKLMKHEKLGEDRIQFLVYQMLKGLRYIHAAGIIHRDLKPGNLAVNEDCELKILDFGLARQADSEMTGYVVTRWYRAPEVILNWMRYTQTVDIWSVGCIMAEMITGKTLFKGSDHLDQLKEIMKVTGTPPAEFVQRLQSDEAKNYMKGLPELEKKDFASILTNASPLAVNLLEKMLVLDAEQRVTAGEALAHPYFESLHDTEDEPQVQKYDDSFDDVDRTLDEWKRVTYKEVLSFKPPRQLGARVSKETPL
Protocol: (§1) The enzyme inhibitory activities of compounds disclosed herein were determined by FRET using synthetic peptides labelled with both donor and acceptor fluorophores (Z-LYTE, Life Technologies, Paisley, UK).
The inhibitory activities of compounds of the invention against p38MAPKγ (MAPK12: Life Technologies), were evaluated by determining the level of activation/phosphorylation of the target peptide. The enzyme (800 ng/mL, 2.5 μL) was incubated with the test compound (2.5 μL at either 40 μg/mL, 12 μg/mL, 4 μg/mL, 1.2 μg/mL, 0.4 μg/mL, 0.12 μg/mL, 0.04 μg/mL, 0.012 μg/mL, 0.004 μg/mL or 0.0012 μg/mL) for 2 h at RT. The FRET peptides (8 μM, 2.5 μL), and appropriate ATP solution (2.5 μL, 400 μM) were then added to the enzymes/compound mixtures and incubated for 1 h at RT. Development reagent (protease, 5 μL) was added for 1 h prior to detection in a fluorescence microplate reader (EnVision, Perkin Elmer).
(§2) In all cases, the site-specific protease cleaves non-phosphorylated peptide only and eliminates the FRET signal. Phosphorylation levels of each reaction were calculated using the ratio of coumarin emission (donor) over fluorescein emission (acceptor), for which low ratios indicate high phosphorylation and high ratios indicate low phosphorylation levels.

[2] = target: T2, p38 MAPKα isoform (MAPK14) (Homo sapiens, UniProt Q16539); experiment: p38 MAPKα enzyme inhibition (Z-LYTE FRET); type: biochemical; conditions: Table 2B, unit inferred; read-out: p38 MAPKα (Enzyme Profile)
T2 construct: purchased Life Technologies
T2 sequence (Q16539 whole entry, canonical isoform): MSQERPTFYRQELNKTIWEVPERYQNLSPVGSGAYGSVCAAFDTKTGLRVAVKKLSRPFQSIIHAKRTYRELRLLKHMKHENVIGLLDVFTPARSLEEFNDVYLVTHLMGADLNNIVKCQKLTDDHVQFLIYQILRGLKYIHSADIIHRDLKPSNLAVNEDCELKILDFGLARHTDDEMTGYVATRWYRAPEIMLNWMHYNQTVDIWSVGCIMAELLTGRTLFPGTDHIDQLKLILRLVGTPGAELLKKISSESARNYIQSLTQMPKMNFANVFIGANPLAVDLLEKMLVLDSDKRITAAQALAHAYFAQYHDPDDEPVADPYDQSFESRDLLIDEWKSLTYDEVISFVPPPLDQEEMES
Protocol: as §1
The inhibitory activities of compounds of the invention against the p38 MAPKα isoform (MAPK14: Life Technologies), were evaluated indirectly by determining the level of activation/phosphorylation of the target peptide of the p38 MAPKα down-stream molecule, MAPKAP-K2. The enzyme (40 ng/mL, 2.5 μL) was incubated with the test compound (2.5 μL of either 40 μg/mL, 12 μg/mL, 4 μg/mL, 1.2 μg/mL, 0.4 μg/mL, 0.12 μg/mL, 0.04 μg/mL, 0.012 μg/mL, 0.004 μg/mL or 0.0012 μg/mL) for 2 h at RT. […] Development reagent (protease, 5 μL) was added for 1 h prior to detection in a fluorescence microplate reader (EnVision, Perkin Elmer, Waltham, Mass., USA).
as §2

| Structure (SMILES) | IC50 [1] [nM] | IC50 [2] [nM] |
| --- | --- | --- |
| Cc1ccc(-n2nc(C(C)(C)C)cc2NC(=O)Nc2ccc(OCc3ccnc(Nc4cnc(C(=O)NCCO)cn4)c3)c3ccccc23)cc1 [Example 53, 5-((4-(((4-(3-(3-(tert-Butyl)-1-(p-tolyl)-1H-pyrazol-5-yl)ureido)naphthalen-1-yl)oxy)methyl)pyridin-2-yl)amino)-N-(2-hydroxyethyl)pyrazine-2-carboxamide] | 95 | 17 |
| Cc1ccc(-n2nc(C(C)(C)C)cc2NC(=O)Nc2ccc(OCc3ccnc(Nc4cncc(N5CCCC5)n4)c3)c3ccccc23)cc1 [Example 55, 1-(3-(tert-Butyl)-1-(p-tolyl)-1H-pyrazol-5-yl)-3-(4-((2-((6-(pyrrolidin-1-yl)pyrazin-2-yl)amino)pyridin-4-yl)methoxy)naphthalen-1-yl)urea] | 151 | 15 |
| COC1CCN(C(=O)c2cnc(Nc3cc(COc4ccc(NC(=O)Nc5cc(C(C)(C)C)nn5-c5ccc(C)cc5)c5ccccc45)ccn3)cn2)CC1 [Example 56] | 262 | 21 |
| COc1cc(-n2nc(C(C)(C)C)cc2NC(=O)Nc2ccc(OCc3ccnc(Nc4cnccn4)c3)c3ccccc23)ccc1C [Example 57] | 229 | 15 |
| Cc1cccc(-n2nc(C(C)(C)C)cc2NC(=O)Nc2ccc(OCc3ccnc(Nc4cnc(C)c(C)n4)c3)c3ccccc23)c1 [Example 58] | 435 | 18 |
| Cc1ccc(-n2nc(C(C)(C)C)cc2NC(=O)Nc2ccc(OCc3ccnc(Nc4cnccn4)c3)c3ccccc23)cc1F [Example 59] | 105 | 18 |
| COCCN(C)C(=O)c1cnc(Nc2cc(COc3ccc(NC(=O)Nc4cc(C(C)(C)C)nn4-c4ccc(C)cc4)c4ccccc34)ccn2)cn1 [Example 60] | 144 | 14 |
| Cc1cccc(-n2nc(C(C)(C)C)cc2NC(=O)Nc2ccc(OCc3ccnc(Nc4cnc(CO)cn4)c3)c3ccccc23)c1 [Example 61] | 32 | 5.6 |
| CCc1cncc(Nc2cc(COc3ccc(NC(=O)Nc4cc(C(C)(C)C)nn4-c4cccc(F)c4)c4ccccc34)ccn2)n1 [Example 62] | 560 | 24 |
| CCc1cncc(Nc2cc(COc3ccc(NC(=O)Nc4cc(C(C)(C)C)nn4-c4ccc(OC)nc4)c4ccccc34)ccn2)n1 [Example 63] | 312 | 25 |
| COCc1cccc(-n2nc(C(C)(C)C)cc2NC(=O)Nc2ccc(OCc3ccnc(Nc4cnc(CN5CCN(C)CC5)cn4)c3)c3ccccc23)c1 [Example 276, 1-(3-(tert-butyl)-1-(3-(methoxymethyl)phenyl)-1H-pyrazol-5-yl)-3-(4-((2-((5-((4-methylpiperazin-1-yl)methyl)pyrazin-2-yl)amino)pyridin-4-yl)methoxy)naphthalen-1-yl)urea] | 8.4 |  |
| Cc1ccc(-n2nc(C(C)(C)C)cc2NC(=O)Nc2ccc(OCc3ccnc(Nc4cnc(CN5CCN(C)CC5)cn4)c3)c3ccccc23)cc1 [Example 277, 1-(3-(tert-butyl)-1-(p-tolyl)-1H-pyrazol-5-yl)-3-(4-((2-((5-((4-methylpiperazin-1-yl)methyl)pyrazin-2-yl)amino)pyridin-4-yl)methoxy)naphthalen-1-yl)urea] | 31 |  |
| Cc1ccc(-n2nc(C(C)(C)C)cc2NC(=O)Nc2ccc(OCc3ccnc(Nc4cnc(C(=O)N[C@@H](C)CN5CCOCC5)cn4)c3)c3ccccc23)cc1 [Example 278, (S)-5-((4-(((4-(3-(3-(tert-butyl)-1-(p-tolyl)-1H-pyrazol-5-yl)ureido)naphthalen-1-yl)oxy)methyl)pyridin-2-yl)amino)-N-(1-morpholinopropan-2-yl) pyrazine-2-carboxamide] | 197 |  |
| Cc1ccc(-n2nc(C(C)(C)C)cc2NC(=O)Nc2ccc(OCc3ccnc(Nc4cnc(C(=O)NCCCN5CCOCC5)cn4)c3)c3ccccc23)cc1 [Example 279, 5-((4-(((4-(3-(3-(tert-butyl)-1-(p-tolyl)-1H-pyrazol-5-yl)ureido)naphthalen-1-yl)oxy)methyl)pyridin-2-yl)amino)-N-(3-morpholino-propyl)pyrazine-2-carboxamide] | 116 |  |
| Cc1ccc(-n2nc(C(C)(C)C)cc2NC(=O)Nc2ccc(OCc3ccnc(Nc4cnc(C(=O)NCCCN5CCN(C)CC5)cn4)c3)c3ccccc23)cc1 [Example 280, 5-((4-(((4-(3-(3-(tert-butyl)-1-(p-tolyl)-1H-pyrazol-5-yl)ureido)naphthalen-1-yl)oxy)methyl)pyridin-2-yl)amino)-N-(3-(4-methyl-piperazin-1-yl)propyl) pyrazine-2-carboxamide] | 31 |  |
| Cc1ccc(-n2nc(C(C)(C)C)cc2NC(=O)Nc2ccc(OCc3ccnc(Nc4cnc(C(=O)NCC(C)(C)N5CCOCC5)cn4)c3)c3ccccc23)cc1 [Example 281, 5-((4-(((4-(3-(3-(tert-butyl)-1-(p-tolyl)-1H-pyrazol-5-yl)ureido)naphthalen-1-yl)oxy)methyl)pyridin-2-yl)amino)-N-(2-methyl-2-morpholinopropyl)pyrazine-2-carboxamide] | 289 |  |
| COCCN1CCC(NC(=O)c2cnc(Nc3cc(COc4ccc(NC(=O)Nc5cc(C(C)(C)C)nn5-c5ccc(C)cc5)c5ccccc45)ccn3)cn2)CC1 [Example 282, 5-((4-(((4-(3-(3-(tert-butyl)-1-(p-tolyl)-1H-pyrazol-5-yl)ureido)naphthalen-1-yl)oxy)methyl)pyridin-2-yl)amino)-N-(1-(2-methoxy-ethyl)piperidin-4-yl) pyrazine-2-carboxamide] | 62 |  |
| CCN1CCN(C(=O)c2cnc(Nc3cc(COc4ccc(NC(=O)Nc5cc(C(C)(C)C)nn5-c5cccc(COC)c5)c5ccccc45)ccn3)cn2)CC1 [Example 283, 1-(3-(tert-butyl)-1-(3-(methoxymethyl)phenyl)-1H-pyrazol-5-yl)-3-(4-((2-((5-(4-ethylpiperazine-1-carbonyl)pyrazin-2-yl)amino)pyridin-4-yl)methoxy)naphthalen-1-yl)urea] | 35 |  |
| COCc1cccc(-n2nc(C(C)(C)C)cc2NC(=O)Nc2ccc(OCc3ccnc(Nc4cnc(C(=O)N5CCC(N(C)C)CC5)cn4)c3)c3ccccc23)c1 [Example 284, 1-(3-(tert-butyl)-1-(3-(methoxymethyl)phenyl)-1H-pyrazol-5-yl)-3-(4-((2-((5-(4-(dimethylamino)piperidine-1-carbonyl)pyrazin-2-yl)amino)pyridin-4-yl)methoxy)naphthalen-1-yl)urea] | 1.7 |  |
| Cc1ccc(-n2nc(C(C)(C)C)cc2NC(=O)Nc2ccc(OCc3ccnc(Nc4cncc(CN5CCOCC5)n4)c3)c3ccccc23)cc1 [Example 285, 1-(3-(tert-butyl)-1-(p-tolyl)-1H-pyrazol-5-yl)-3-(4-((2-((6-(morpholinomethyl)pyrazin-2-yl)amino)pyridin-4-yl)methoxy)naphthalen-1-yl)urea] | 83 |  |
| Cc1ccc(-n2nc(C(C)(C)C)cc2NC(=O)Nc2ccc(OCc3ccnc(Nc4cncc(C5CCN(C)CC5)n4)c3)c3ccccc23)cc1 [Example 286, 1-(3-(tert-butyl)-1-(p-tolyl)-1H-pyrazol-5-yl)-3-(4-((2-((6-(1-methylpiperidin-4-yl)pyrazin-2-yl)amino)pyridin-4-yl)methoxy)naphthalen-1-yl)urea] | 5.8 |  |
| Cc1ccc(-n2nc(C(C)(C)C)cc2NC(=O)Nc2ccc(OCc3ccnc(Nc4cnc(C(=O)NC(C)(C)CN5CCOCC5)cn4)c3)c3ccccc23)cc1 [Example 287, 5-((4-(((4-(3-(3-(tert-butyl)-1-(p-tolyl)-1H-pyrazol-5-yl)ureido)naphthalen-1-yl)oxy)methyl)pyridin-2-yl)amino)-N-(2-methyl-1-morpholinopropan-2-yl) pyrazine-2-carboxamide] | > 12800 |  |
| Cc1ccc(-n2nc(C(C)(C)C)cc2NC(=O)Nc2ccc(OCc3ccnc(Nc4cnc(C(=O)NCc5nccn5C)cn4)c3)c3ccccc23)cc1 [Example 288, 5-((4-(((4-(3-(3-(tert-butyl)-1-(p-tolyl)-1H-pyrazol-5-yl)ureido)naphthalen-1-yl)oxy)methyl)pyridin-2-yl)amino)-N-((1-methyl-1H-imidazol-2-yl)methyl)pyrazine-2-carboxamide] | > 13600 |  |
